Measurements taken from publication PMC3552814, “Elimination Rates of Dioxin Congeners in Former Chlorophenol Workers from Midland, Michigan” (Environmental Health Perspectives, 2012).
Read-outs that look alike come from different tables or passages of the source.

How the values were obtained:
[1] = Serum lipid-adjusted dioxin congener concentrations in former chlorophenol workers, repeated blood sampling 2004–2005 and 2010; assay type: in vivo, human; details: for Mean percent change: change in concentration from 2004–2005 to 2010; for Concentration 2004–2005, Mean ± SD / Concentration 2010, Mean ± SD: serum, 56 Midland study participants
From the text: Participant selection. The selection strategy called for drawing a stratified random sample of workers included in the previous 2004–2005 blood draw. […] We used the 95th percentile of age-specific U.S. population concentrations for each congener identified in the National Health and Nutrition Examination Survey (NHANES; [Centers for Disease Control and Prevention 2009]) to define the upper ends of the background ranges. Nine strata were formed based jointly on previous serum levels of TCDD (high, > 50 ppt; moderate, 10–50 ppt; and background, < 10 ppt), representing workers in predominantly TCP processes, and OCDD (high, > 5,000 ppt; moderate, 1,000–5,000 ppt; and background, < 1,000 ppt), representing those with experience in PCP processes. We attempted to enroll participants representing each of these strata. Invitations to participate were sent to our target sample of 72 workers who were selected based on these congener concentration criteria.
Questionnaire and data collection methods. We conducted the serum analyses in 2010 using the same protocol, procedures, and laboratory as in the 2004–2005 blood draw ([Collins et al. 2006]). The serum samples were tested for 7 polychlorinated dibenzo-p-dioxins (PCDDs), 10 polychlorinated dibenzofurans (PCDFs), and 15 polychlorinated biphenyls (PCBs). […] The study was conducted pursuant to approval and oversight by the Dow Human Subjects Review Board in Midland, Michigan. All study participants gave informed consent.
On the day of examination in the fall of 2010, participants donated blood and completed the same questionnaire originally administered during the 2004–2005 sampling effort ([Collins et al. 2006]). The questionnaire addressed dietary and smoking habits, work history, and recent changes in weight. Height, weight, and blood pressure were also measured. Diagnosis of chloracne during occupational exposure was extracted from workplace medical records; the criteria for chloracne diagnosis were defined previously by [Bond et al. (1990)].

[2] = Elimination half-lives from serial serum samples, first-order one-compartment model; assay type: in vivo; details: human, serum (lipid-adjusted), other: occupational exposure, 56 participants
From the text: Elimination rates. Changes in measured concentrations of persistent compounds such as PCDDs and PCDFs reflect not only intrinsic elimination rates but also any ongoing intakes of the compounds and changes in the volume of distribution, in this case, the volume of body lipids ([Bartell 2012]; [Ritter et al. 2009], [2011]). If current body concentrations are high relative to steady-state concentrations associated with current background intake rates, apparent elimination rates will approximate intrinsic elimination rates ([Bartell 2012]; [van der Molen et al. 1998]). If, on the other hand, background intakes are high compared with current body concentrations, the estimated apparent elimination rate will be lower than the intrinsic rates. Robust data regarding ongoing congener intake rates were not available, so the elimination rates were first calculated based on net rate of change of the congeners, which reflects both intrinsic elimination rates and unmeasured intake rates, termed “apparent” elimination rates.
We calculated apparent elimination rates in two ways: based on changes in concentration, or based on changes in estimated body amounts. For the former approach, concentrations of congener i in 2005 and 2010 (Ci,2005 and Ci,2010, respectively) and time between sampling dates (Δt), were used to estimate the elimination rate (ki):
Concentrations of lipophilic compounds may change in response to changes in the volume of distribution (increase or decrease in amount of body fat), even in the absence of any elimination or additional exposure ([Charlier et al. 2002]; [Chevrier et al. 2000]; [Hue et al. 2006]; [Imbeault et al. 2001]; [Pelletier et al. 2002]; [Walford et al. 1999]). Thus, we also estimated the rate of change in estimated whole body mass of each congener. For the approach based on changes in estimated mass of dioxins in the body, the congener concentrations in 2005 and 2010 were replaced by the estimated amounts, A, of congener i in the body:
where PBF is percent body fat estimated using an age-, sex-, and body mass index (BMI)-specific formula, which has been validated in adults over a range of ages including those of the participants in this study ([Deurenberg et al. 1991]), BW is body weight in kilograms, and Ci is the serum lipid–adjusted concentration of congener i. This approach assumes that the compound is distributed solely in body lipid. The resulting amount, Ai, calculated for each sampling time and congener was used in Equation 1 in place of concentration for calculating the apparent whole-body mass-based elimination rate.
Elimination half-lives (t1/2) corresponding to the estimated elimination rates, (k) were calculated for some comparisons with previous literature:
Inclusion of plausible background exposures. […] Changes in concentration or estimated mass of compound in the body reflect the net effect of both elimination and any ongoing exposures between sampling time points. Under a first-order model, the amount of compound in the body in 2010 (A2010) is a function of both the intrinsic elimination rate, kint, and the ongoing exposure rate between sampling time points:
where D is the yearly dose rate in nanograms per year, and A2005 is the starting amount in 2005. As described by [Ritter et al. (2011)], intrinsic elimination rates can be estimated if ongoing exposure levels are known or can be estimated.

[3] = design: method as in van den Berg et al. 2006; details: WHO toxic equivalency factor; ref van den Berg et al. 2006; cited from earlier work
[4] = cited from earlier work; for Half-life of elimination, Rohde et al. 1999 (mean) / Half-life of elimination, Flesch-Janys et al. 1996 (median): from change in concentration; for Half-life of elimination, Rohde et al. 1999 (mean): n = 6, ages 41–73 years, ref Rohde et al. 1999; for Half-life of elimination, Flesch-Janys et al. 1996 (median): n = 26 to 48, mean age 48.7 years at first sampling, ref Flesch-Janys et al. 1996
[5] = design: method as in Patterson et al. 2009; details: persons ≥ 60 years of age, ref Patterson et al. 2009, cited from earlier work; for NHANES (2003–2004) P50: 50th percentile, LODs variable; for NHANES (2003–2004) P95: 95th percentile
[6] = based on change in estimated mass of the congener in the body, read-out: Elimination half-lives [median (P25–P75)], Apparent, mass based (converted)
[7] = based on change in serum lipid concentration, read-out: Elimination half-lives [median (P25–P75)], Apparent, concentration based (converted)
[8] = change in body mass after accounting for plausible background intake (Table 3), read-out: Elimination half-lives [median (P25–P75)], Estimated intrinsic (converted)

SMILES | Mean percent change [1] | Concentration 2004–2005, Mean ± SD [1] [pg/g lipid] | Concentration 2010, Mean ± SD [1] [pg/g lipid] | half-life [2, 6] [days] | half-life [2, 7] [days] | half-life [2, 8] [days] | TEF [3] | Half-life of elimination, Rohde et al. 1999 (mean) [4] [years] | Half-life of elimination, Flesch-Janys et al. 1996 (median) [4] [years] | NHANES (2003–2004) P50 [5] [pg/g lipid] | NHANES (2003–2004) P95 [5] | 2004–2005 median concentration ([1]; present study) [pg/g lipid] | Median concentration at first sampling time point ([4]; ref Flesch-Janys et al. (1996)) [pg/g lipid]
Clc1cc2c(c(Cl)c1Cl)Oc1cc(Cl)c(Cl)c(Cl)c1O2 [Congener 16HxCDD, 1,2,3,6,7,8-hexachlorodibenzo-p-dioxin] | –31% | 136.6 ± 99.9 | 94.3 ± 70.8 | 4020 | 3690 | 3290 | 0.1 | 11.6 | 13.1 | 47.3 | 104 pg/g lipid |  | 
Clc1cc2c(cc1Cl)Oc1cc(Cl)c(Cl)cc1O2 [TCDD, 2,3,7,8-tetrachlorodibenzo-p-dioxin] | –39% | 21.1 ± 30.0 | 12.9 ± 19.6 | 2560 | 2370 | 2370 | 1 | 8.7 | 7.2 |  | 7.9 pg/g lipid |  | 
Clc1c(Cl)c(Cl)c2c(c1Cl)Oc1c(Cl)c(Cl)c(Cl)c(Cl)c1O2 [OCDD, octachlorodibenzo-p-dioxin] | –41% | 1919.6 ± 2121.0 | 1124.7 ± 1232.0 | 3030 | 2850 | 2670 | 0.0003 | 8.7 | 6.7 | 370 | 1,180 pg/g lipid |  | 
Clc1cc2c(c(Cl)c1Cl)Oc1c(cc(Cl)c(Cl)c1Cl)O2 [Congener 19HxCDD, 1,2,3,7,8,9-hexachlorodibenzo-p-dioxin] | –42% | 19.4 ± 14.5 | 11.3 ± 9.8 | 2480 | 2260 | 2300 | 0.1 | 7.7 | 4.9 |  | 16.2 pg/g lipid |  | 
Clc1cc2c(cc1Cl)Oc1c(Cl)c(Cl)c(Cl)c(Cl)c1O2 [Congener 14HxCDD, 1,2,3,4,7,8-hexachlorodibenzo-p-dioxin] | –34% | 16.0 ± 11.9 | 10.5 ± 7.9 | 3000 | 2960 | 2560 | 0.1 | 13.9 | 8.4 |  | 15.1 pg/g lipid |  | 
Clc1cc2c(c(Cl)c1Cl)Oc1c(Cl)c(Cl)c(Cl)c(Cl)c1O2 [HpCDD, 1,2,3,4,7,8,9-heptachlorodibenzo-p-dioxin] | –46% | 159.9 ± 161.8 | 87.1 ± 83.3 | 2780 | 2560 | 2450 | 0.01 | 4.3 | 3.7 |  |  | 88.6 | 641
Clc1cccc2c1Oc1c(Cl)c(Cl)c(Cl)c(Cl)c1O2 [PeCDD, pentachlorodibenzo-p-dioxin] | –28% | 19.7 ± 11.3 | 14.2 ± 8.6 | 4240 | 3910 | 3910 | 1 | 13.9 | 15.7 | 8.0 | 17.7 pg/g lipid |  | 
